We go through twelve compounds from patent publication US11396505B2, “Inhibitors of CaMKK2 and uses of same” (New York University, priority 2019, dated 2022).

Bounds are passed on as bounds.

Series [1] has as its target T1, CaMKK2 (Homo sapiens, UniProt Q96RR4). As to the kind of experiment: CaMKK1/2 biochemical assay, 32P radiometric kinase assay (CaMKK2).
The target of series [2] is T1, CaMKK2. The series is described as above. To be noted: for inhibition at 0.2 µM: 0.2 μM compound, read-out: CaMKK2 % inhibition @ concentrations shown, 0.2 μM; for inhibition at 0.5 µM: 0.5 μM compound, read-out: CaMKK2 % inhibition @ concentrations shown, 0.5 μM; for inhibition at 10 µM: 10 μM compound, read-out: CaMKK2 % inhibition @ concentrations shown, 10 μM. The method, then: (§1) The following is an example of a CaMKK1/2-biochemical assay. Compounds were tested for CaMKK1/2 inhibition using a ^32P radiometric kinase assay as follows: A freshly prepared kinase reaction buffer (20 mM Hepes (pH 7.5), 10 mM MgCl2, 1 mM EGTA, 0.02% Brij35, 0.02 mg/ml BSA, 0.1 mM Na3VO4, 2 mM DTT, 1% DMSO) was treated with Myelin Basic Protein (final concentration=20 μM), CaCl2) (final concentration=1.5 mM), Calmodulin (final concentration=0.96 μM) and either CaMKK2 (final reaction concentration=120 nM) or CaMKK1 (final reaction concentration=150 nM) and gently mixed. Compounds were added as aliquots from 10 mM DMSO stock solutions such that the final compound concentration in the assay was either 10 μM, 0.5 μM or 0.2 μM. This mixture was allowed to incubate for 20 minutes at room temperature. ^32P-ATP (specific activity 10 μCi/μL) was added and the mixture was allowed to incubate for 2 hours at room temperature. The reaction mixture was spotted onto P81 ion exchange paper. The kinase activity was detected by the filter binding method.

Series [3] addresses CaMKK1 (Homo sapiens, UniProt Q8N5S9). Kind of series: CaMKK1/2 biochemical assay, 32P radiometric kinase assay (CaMKK1). The method, then:
as §1

The conditions of series [4]: despite achieving high plasma concentrations; cited from earlier work.
For series [5] the following is noted: cited from earlier work.
The conditions of series [6]: cited from earlier work. This is another data set of the same source.
In series [7] the target is T2, ArH receptor (Homo sapiens, UniProt P35869).
T2 sequence (P35869 11-848): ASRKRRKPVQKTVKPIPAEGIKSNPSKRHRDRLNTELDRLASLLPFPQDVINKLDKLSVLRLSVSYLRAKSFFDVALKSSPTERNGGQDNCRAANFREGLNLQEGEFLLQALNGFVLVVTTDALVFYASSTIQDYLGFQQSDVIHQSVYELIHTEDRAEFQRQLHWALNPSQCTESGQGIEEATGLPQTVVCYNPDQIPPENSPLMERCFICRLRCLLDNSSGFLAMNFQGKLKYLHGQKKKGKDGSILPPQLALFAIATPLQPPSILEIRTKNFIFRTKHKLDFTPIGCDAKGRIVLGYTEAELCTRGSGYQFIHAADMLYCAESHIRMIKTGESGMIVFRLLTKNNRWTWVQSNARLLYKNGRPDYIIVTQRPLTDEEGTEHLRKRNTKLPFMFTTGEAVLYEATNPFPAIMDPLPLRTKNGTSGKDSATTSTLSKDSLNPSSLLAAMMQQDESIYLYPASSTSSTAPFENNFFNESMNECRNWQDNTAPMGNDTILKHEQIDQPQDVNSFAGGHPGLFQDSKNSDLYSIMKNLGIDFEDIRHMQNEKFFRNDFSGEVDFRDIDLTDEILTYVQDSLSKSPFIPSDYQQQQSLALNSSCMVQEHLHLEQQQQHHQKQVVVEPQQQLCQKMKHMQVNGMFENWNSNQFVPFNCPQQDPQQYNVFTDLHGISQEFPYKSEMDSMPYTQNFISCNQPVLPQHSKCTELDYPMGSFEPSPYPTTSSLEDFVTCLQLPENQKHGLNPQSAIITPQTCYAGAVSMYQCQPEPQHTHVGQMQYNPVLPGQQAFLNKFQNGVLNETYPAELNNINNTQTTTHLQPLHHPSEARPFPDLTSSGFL
The settings on record: cited from earlier work.

In series [1], `O=C1OCCN1c1ccc2[nH]nc(-c3cc4ccccc4[nH]3)c2c1` [Example 3, 3-(3-(1H-indol-2-yl)-1H-indazol-5-yl)oxazolidin-2-one] displayed a half-inhibitory concentration (IC50) of 70 nM. For the same compound, in series [2], the inhibition at 0.2 µM came out at 80%, the inhibition at 0.5 µM was 94% and the inhibition at 10 µM turned out to be 100%. In addition, in series [3], it took 141 nM to reach half-maximal inhibition (IC50).

The compound `O=C1OCCN1c1ccc2[nH]nc(/C=C/c3ccccn3)c2c1` [Example 4, (E)-3-(3-(2-(pyridin-2-yl)vinyl)-1H-indazol-5-yl)oxazolidin-2-one] had a half-inhibitory concentration (IC50) in series [1] of 190 nM. Moreover, in series [2], the inhibition at 0.2 µM was 55%, the inhibition at 0.5 µM was found to be 81% and the inhibition at 10 µM was 98%.

Take `O=C1OCCN1c1ccc2[nH]nc(-c3ccncc3)c2c1` [Example 13, 3-(3-(pyridin-4-yl)-1H-indazol-5-yl)oxazolidin-2-one]: the “Biochemical Data CaMKK2, inh @ 0.5 μM” value in series [2] (0.5 μM) came to 33% inh @ 0.5 μM. Moreover, in series [2], the inhibition at 0.5 µM was 33%. Further, in series [3] (0.5 μM), the “Biochemical Data CaMKK1, inh @ 0.5 μM” value came to 7% inh @ 0.5 μM.

With `O=C1OCCN1c1ccc2[nH]nc(-c3ccc[nH]3)c2c1` [Example 22, 3-(3-(1H-pyrrol-2-yl)-1H-indazol-5-yl)oxazolidin-2-one], in series [2], the “Biochemical Data CaMKK2, inh @ 0.2 μM” value is 37% inh @ 0.2 μM and the inhibition at 0.2 µM worked out at 37%. In addition, the “Biochemical Data CaMKK1, inh @ 0.2 μM” value in series [3] is given as under 5% inh @ 0.2 μM.

With `O=C1OCCN1c1ccc2[nH]nc(-c3cccc(Cl)c3)c2c1` [Example 23, 3-(3-(3-chlorophenyl)-1H-indazol-5-yl)oxazolidin-2-one], in series [2], the “Biochemical Data CaMKK2, inh @ 0.2 μM” value was 44% inh @ 0.2 μM and the inhibition at 0.2 µM came to 44%. The “Biochemical Data CaMKK1, inh @ 0.2 μM” value in series [3] is on record as under 5% inh @ 0.2 μM.

For `O=C1OCCN1c1ccc2[nH]nc(-c3ccc(Cl)cc3)c2c1` [Example 24, 3-(3-(4-chlorophenyl)-1H-indazol-5-yl)oxazolidin-2-one], in series [2], the “Biochemical Data CaMKK2, inh @ 0.2 μM” value is recorded as 41% inh @ 0.2 μM and the inhibition at 0.2 µM was 41%. Also, the “Biochemical Data CaMKK1, inh @ 0.2 μM” value in series [3] is listed as under 5% inh @ 0.2 μM.

For `O=C1OCCN1c1ccc2[nH]nc(-c3cccc(-c4ccccc4)c3)c2c1` [Example 26, 3-(3-([1,1′-biphenyl]-3-yl)-1H-indazol-5-yl)oxazolidin-2-one], in series [2], the “Biochemical Data CaMKK2, inh @ 0.2 μM” value is given as 36% inh @ 0.2 μM and the inhibition at 0.2 µM came to 36%. In series [3], the “Biochemical Data CaMKK1, inh @ 0.2 μM” value is under 5% inh @ 0.2 μM.

As for `COc1ccc(/C=C/c2n[nH]c3ccc(N4CCOC4=O)cc23)cc1` [Example 31, (E)-3-(3-(4-methoxystyryl)-1H-indazol-5-yl)oxazolidin-2-one], the IC50 in series [1] worked out at 33 nM; in series [3] it was 536 nM. Besides, in series [2], the inhibition at 0.2 µM is 81%.

With `O=C1OCCCN1c1ccc2[nH]nc(-c3cc4ccccc4[nH]3)c2c1` [Example 40, 3-(3-(1H-indol-2-yl)-1H-indazol-5-yl)-1,3-oxazinan-2-one], in series [2], the “Biochemical Data CaMKK2, inh @ 0.2 μM” value amounted to 37% inh @ 0.2 μM and the inhibition at 0.2 µM is 37%. Besides, in series [3], the “Biochemical Data CaMKK1, inh @ 0.2 μM” value is listed as under 5% inh @ 0.2 μM.

On to `O=C1CCCCN1c1ccc2[nH]nc(-c3cc4ccccc4[nH]3)c2c1` [Example 41, 1-(3-(1H-indol-2-yl)-1H-indazol-5-yl)piperidin-2-one], for which, in series [2], the “Biochemical Data CaMKK2, inh @ 0.2 μM” value is reported as 12% inh @ 0.2 μM and the inhibition at 0.2 µM is 12%. The “Biochemical Data CaMKK1, inh @ 0.2 μM” value in series [3] is reported as under 5% inh @ 0.2 μM.

Turning to `COc1cccc2cc(-c3nc([C@H]4CC[C@H](C(=O)O)CC4)n4ncnc(N)c34)[nH]c12` [OSI-027], the “tissue and tumor penetration” value in series [4] is “poor tissue and tumor penetration”.

`O=C(O)c1ccc2c3c1cccc3c(=O)n1c3ccccc3nc21` [STO-609]: the permeability result in series [5] is “poor permeability”. In series [6] (9.4 mg/kg ip dose), the brain entry result is “fails to enter the brain” and the plasma concentrations was over 30 µM. Moreover, the “tissue Cmax values” in series [6] (tissue penetration, 9.4 mg/kg ip) was at most 1 µM. For the same compound, the “elimination completed in” value in series [6] (tissues) is ≤ 8 h (h). Also, the “agonist of the ArH receptor” value in series [7] was 43 nM.

One may read the IC50 as the concentration that inhibits the measured activity by half. Low readings indicate inhibition by little substance, high ones a need for much substance.
